PubChem BioAssay (NCI)
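Tested at 5 concentrations; 48 h exposure; 96-well plates; endpoints linearly interpolated, else capped at highest concentration. GI50: concentration for 50% inhibition of growth. TGI: concentration producing complete growth inhibition.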

Each compound was assayed on T-47D breast (assay: inhibition of tumour cell growth, NCI panel, 48 h).

SMILES	GI50	TGI
COc1ccc(-n2c(SCc3cc(OC)c(OC)c(OC)c3)nc3ccc(C)cc3c2=O)cc1	5.46 µM	> 100 µM
COc1cccc(N=Cc2c3ccccc3c(=O)n3c2oc2ccccc23)c1	> 100 µM	> 100 µM
Cn1cc(C2=C(c3cn(C)c4c(N)cccc34)C(=O)NC2=O)c2ccccc21	1.31 µM	11.9 µM
O=[N+]([O-])c1ccc2nnnn2c1		> 100 µM

These compounds were tested on SR leukemia (assay: inhibition of tumour cell growth, NCI panel, 48 h).

SMILES	GI50	TGI
Cn1cc(C2=C(c3cn(C)c4c(N)cccc34)C(=O)NC2=O)c2ccccc21	0.407 µM	> 25 µM
O=[N+]([O-])c1ccc2nnnn2c1		87.1 µM

Each compound was assayed on SK-MEL-5 melanoma (assay: inhibition of tumour cell growth, NCI panel, 48 h).

SMILES	GI50	TGI
COc1ccc(-n2c(SCc3cc(OC)c(OC)c(OC)c3)nc3ccc(C)cc3c2=O)cc1	3.58 µM	> 100 µM
COc1cccc(N=Cc2c3ccccc3c(=O)n3c2oc2ccccc23)c1	17.5 µM	37.1 µM
Cn1cc(C2=C(c3cn(C)c4c(N)cccc34)C(=O)NC2=O)c2ccccc21	1.38 µM	> 14.2 µM
O=[N+]([O-])c1ccc2nnnn2c1		41.4 µM

What follows are compounds tested on SF-539 CNS (assay: inhibition of tumour cell growth, NCI panel, 48 h).

SMILES	GI50	TGI
COc1ccc(-n2c(SCc3cc(OC)c(OC)c(OC)c3)nc3ccc(C)cc3c2=O)cc1	14.8 µM	> 100 µM
COc1cccc(N=Cc2c3ccccc3c(=O)n3c2oc2ccccc23)c1	16.3 µM	95.3 µM
Cn1cc(C2=C(c3cn(C)c4c(N)cccc34)C(=O)NC2=O)c2ccccc21	0.59 µM	1.98 µM
O=[N+]([O-])c1ccc2nnnn2c1		65.7 µM

The compounds below were run on HT29 colon (assay: inhibition of tumour cell growth, NCI panel, 48 h).

SMILES	GI50	TGI
COc1ccc(-n2c(SCc3cc(OC)c(OC)c(OC)c3)nc3ccc(C)cc3c2=O)cc1	4.3 µM	> 100 µM
COc1cccc(N=Cc2c3ccccc3c(=O)n3c2oc2ccccc23)c1	32.7 µM	> 100 µM
Cn1cc(C2=C(c3cn(C)c4c(N)cccc34)C(=O)NC2=O)c2ccccc21	1.25 µM	12.8 µM
O=[N+]([O-])c1ccc2nnnn2c1		> 100 µM

Each compound was assayed on RXF 393 renal (assay: inhibition of tumour cell growth, NCI panel, 48 h).

SMILES	GI50	TGI
COc1ccc(-n2c(SCc3cc(OC)c(OC)c(OC)c3)nc3ccc(C)cc3c2=O)cc1	70.4 µM	> 100 µM
COc1cccc(N=Cc2c3ccccc3c(=O)n3c2oc2ccccc23)c1		20.9 µM
Cn1cc(C2=C(c3cn(C)c4c(N)cccc34)C(=O)NC2=O)c2ccccc21	1.03 µM	6.85 µM
O=[N+]([O-])c1ccc2nnnn2c1		> 100 µM

These compounds were tested on SW-620 colon (assay: inhibition of tumour cell growth, NCI panel, 48 h).

SMILES	GI50	TGI
COc1ccc(-n2c(SCc3cc(OC)c(OC)c(OC)c3)nc3ccc(C)cc3c2=O)cc1	4.35 µM	> 100 µM
COc1cccc(N=Cc2c3ccccc3c(=O)n3c2oc2ccccc23)c1	38 µM	> 100 µM
Cn1cc(C2=C(c3cn(C)c4c(N)cccc34)C(=O)NC2=O)c2ccccc21	0.905 µM	> 25 µM
O=[N+]([O-])c1ccc2nnnn2c1		> 100 µM

Each compound was assayed on MOLT-4 leukemia (assay: inhibition of tumour cell growth, NCI panel, 48 h).

SMILES	GI50	TGI
COc1ccc(-n2c(SCc3cc(OC)c(OC)c(OC)c3)nc3ccc(C)cc3c2=O)cc1	5.19 µM	> 100 µM
COc1cccc(N=Cc2c3ccccc3c(=O)n3c2oc2ccccc23)c1	2.66 µM	6 µM
Cn1cc(C2=C(c3cn(C)c4c(N)cccc34)C(=O)NC2=O)c2ccccc21	3.35 µM	21.6 µM
O=[N+]([O-])c1ccc2nnnn2c1		> 100 µM

Each compound was assayed on COLO 205 colon (assay: inhibition of tumour cell growth, NCI panel, 48 h).

SMILES	GI50	TGI
COc1ccc(-n2c(SCc3cc(OC)c(OC)c(OC)c3)nc3ccc(C)cc3c2=O)cc1	5.24 µM	> 100 µM
COc1cccc(N=Cc2c3ccccc3c(=O)n3c2oc2ccccc23)c1	34.5 µM	> 100 µM
Cn1cc(C2=C(c3cn(C)c4c(N)cccc34)C(=O)NC2=O)c2ccccc21	1.99 µM	9.96 µM
O=[N+]([O-])c1ccc2nnnn2c1		> 100 µM

Each compound was assayed on HOP-62 NSCLC (assay: inhibition of tumour cell growth, NCI panel, 48 h).

SMILES	GI50	TGI
COc1ccc(-n2c(SCc3cc(OC)c(OC)c(OC)c3)nc3ccc(C)cc3c2=O)cc1	29.1 µM	> 100 µM
COc1cccc(N=Cc2c3ccccc3c(=O)n3c2oc2ccccc23)c1	13.7 µM	90.1 µM
Cn1cc(C2=C(c3cn(C)c4c(N)cccc34)C(=O)NC2=O)c2ccccc21	1.25 µM	> 15.2 µM
O=[N+]([O-])c1ccc2nnnn2c1		> 100 µM

Each compound was assayed on TK-10 renal (assay: inhibition of tumour cell growth, NCI panel, 48 h).

SMILES	GI50	TGI
COc1cccc(N=Cc2c3ccccc3c(=O)n3c2oc2ccccc23)c1	2.95 µM	7.69 µM
Cn1cc(C2=C(c3cn(C)c4c(N)cccc34)C(=O)NC2=O)c2ccccc21	4.28 µM	18.3 µM
O=[N+]([O-])c1ccc2nnnn2c1		> 100 µM

These compounds were tested on MDA-MB-231 breast (assay: inhibition of tumour cell growth, NCI panel, 48 h).

SMILES	GI50	TGI
COc1ccc(-n2c(SCc3cc(OC)c(OC)c(OC)c3)nc3ccc(C)cc3c2=O)cc1	5.73 µM	> 100 µM
COc1cccc(N=Cc2c3ccccc3c(=O)n3c2oc2ccccc23)c1	10.2 µM	48.7 µM
Cn1cc(C2=C(c3cn(C)c4c(N)cccc34)C(=O)NC2=O)c2ccccc21	4.63 µM	20.8 µM
O=[N+]([O-])c1ccc2nnnn2c1		96.4 µM

The compounds below were run on DU-145 prostate (assay: inhibition of tumour cell growth, NCI panel, 48 h).

SMILES	GI50	TGI
COc1ccc(-n2c(SCc3cc(OC)c(OC)c(OC)c3)nc3ccc(C)cc3c2=O)cc1	> 100 µM	> 100 µM
COc1cccc(N=Cc2c3ccccc3c(=O)n3c2oc2ccccc23)c1	21.8 µM	> 100 µM
Cn1cc(C2=C(c3cn(C)c4c(N)cccc34)C(=O)NC2=O)c2ccccc21	2.48 µM	> 25 µM
O=[N+]([O-])c1ccc2nnnn2c1		> 100 µM

These compounds were tested on SF-268 CNS (assay: inhibition of tumour cell growth, NCI panel, 48 h).

SMILES	GI50	TGI
COc1ccc(-n2c(SCc3cc(OC)c(OC)c(OC)c3)nc3ccc(C)cc3c2=O)cc1	55.2 µM	> 100 µM
COc1cccc(N=Cc2c3ccccc3c(=O)n3c2oc2ccccc23)c1	37.1 µM	> 100 µM
Cn1cc(C2=C(c3cn(C)c4c(N)cccc34)C(=O)NC2=O)c2ccccc21	2.86 µM	> 25 µM
O=[N+]([O-])c1ccc2nnnn2c1		> 100 µM

The compounds below were run on 786-0 renal (assay: inhibition of tumour cell growth, NCI panel, 48 h).

SMILES	GI50	TGI
COc1ccc(-n2c(SCc3cc(OC)c(OC)c(OC)c3)nc3ccc(C)cc3c2=O)cc1	> 100 µM	> 100 µM
COc1cccc(N=Cc2c3ccccc3c(=O)n3c2oc2ccccc23)c1	14 µM	> 100 µM
